Experimental data taken from publication PMC12434668 (Journal of Medicinal Chemistry, 2025).
Read-outs that look alike come from different tables or passages of the source.

Assays:
NCI-H929 cells = test: In vitro proliferation assay (CellTiter-Glo), H929; type: cell-based; conditions: Homo sapiens
Method: (§1) NCI-H929, A427, and K562 cell lines were obtained from ATCC. NCI-H929 cells were cultured in RPMI1640 (ATCC-formulated, Catalog No. 30-2001) + 10% fetal calf serum (FCS, GIBCO BRL, Cat. No. 26140) + 0.05 mM mercaptoethanol. A-427 cells were cultured in RPMI1640 (ATCC-formulated, Catalog No. 30-2001) + 10% fetal calf serum (FCS, GIBCO BRL, Cat. No. 26140). K562 cell lines were cultured in Iscove’s Modified Dulbecco Medium (Gibco-formulated, purchased from Thermo-Fisher, Cat. No. 12440-053) + 10% fetal bovine serum (FBS, Sigma-Aldrich, F2442). All cell lines were cultured at 37 °C with 5% CO2 in a humidified incubator and have been regularly tested negatively for mycoplasm contamination.
(§2) Cells were seeded at 750–1500 cells per well (depending on growth kinetics) in 384-well plates (Corning, Catalog No. 3707) or at 3000 cells per well in 96-well plates in the respective growth medium and allowed to settle overnight. Suspension cells were plated immediately before compound addition. Adherent cell lines were incubated overnight at 37 °C in a tissue culture incubator prior to compound addition. Compounds were added in triplicates using an HP D300e Digital Dispenser (Hewlett-Packard) or manually at the concentrations indicated and total volumes were normalized using DMSO backfill, with final DMSO concentration of 0.5%. Control wells were treated with DMSO only. Following incubation for 72 or 96 h, a Cell Titer-Glo assay was conducted following the manufacturer recommendations (Promega, G9243) and luminescence was measured using a Victor X5 (PerkinElmer) or a Cytation 3 (Biotek) plate reader. % Viability was defined as relative luminescence units (RLU) of each well divided by the RLU of cells on day 0. Four parameter sigmoidal dose–response curves were generated and IC50 values were determined using XLFit (IDBS) software (eq 205) or in-house software. Drug combination experiments were performed in 96-well or 384-well format and drug synergy was determined using the BLISS model (PMID: 26171228).

Mcl-1 = molecular target: T1, Mcl-1 (Homo sapiens, UniProt Q07820); test: TR-FRET binding assay (FITC-Bak peptide competition)
T1 construct: Briefly, a previously reported construct was subcloned into an expression vector (pDEST-HisMBP); MBP (from vector pDEST-HisMBP); made in house; host or cells: Escherichia coli BL21 CodonPlus (DE3) RIL
T1 sequence (Q07820 whole entry): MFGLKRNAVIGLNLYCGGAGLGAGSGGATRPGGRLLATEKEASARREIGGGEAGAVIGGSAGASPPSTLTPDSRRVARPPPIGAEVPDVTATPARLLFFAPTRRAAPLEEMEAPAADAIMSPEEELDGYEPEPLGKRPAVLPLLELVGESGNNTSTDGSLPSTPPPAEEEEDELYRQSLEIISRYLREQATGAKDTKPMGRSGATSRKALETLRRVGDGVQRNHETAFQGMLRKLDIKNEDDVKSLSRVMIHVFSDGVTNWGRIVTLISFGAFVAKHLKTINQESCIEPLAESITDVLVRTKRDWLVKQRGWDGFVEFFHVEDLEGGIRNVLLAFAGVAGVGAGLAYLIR
From the text: Protein preparation was described previously. Briefly, a previously reported construct was subcloned into an expression vector (pDEST-HisMBP) expressed in Escherichia coli BL21 CodonPlus (DE3) RIL (Stratagene) and purified through nickel-column and size-exclusion chromatography sequentially.
Mixtures containing vehicle without compound served as a negative control, while mixtures containing no protein served as a positive control. […] Two or more repeats were obtained and average K i values are reported.

[1] = Mouse pharmacokinetic analyses (i.v. and oral); type: in vivo; conditions: plasma, iv
Method: For PK analysis, mice were administered intravenously or orally with compound formulated in 10% ethanol and 10% Cremophor EL. Compound 13 dosing was also screened with 20% Phosphal IPG, 20% Phosphal MCT, 10% HP-β-CD, and 40% HP-β-CD. Plasma samples were obtained at predefined time points and compound concentrations in plasma were measured by quantitative HPLC–MS/MS using an internal standard. Calibration and quality control samples were prepared using blank plasma from untreated animals. Samples were precipitated with acetonitrile and injected into a HPLC system (Agilent 1200). Separation was performed by gradients of 5 mmol/L ammonium acetate pH 5.0 and acetonitrile with 0.1% formic acid on a Luna C8 reversed-phase column with 2.5 μm particles (Phenomenex). The HPLC was interfaced by ESI operated in positive ionization mode to a triple quadrupole mass spectrometer (6500+ Triple Quad System, SCIEX) operated in multiple reaction monitoring mode. Chromatograms were analyzed with Analyst (SCIEX) and pharmacokinetic parameters were calculated by noncompartmental analysis using proprietary software.

K562 cells = test: In vitro proliferation counterscreen, Mcl-1 insensitive K562; type: cell-based; conditions: Homo sapiens; Mcl-1 insensitive K562; top concentration tested 12.5 µM
Method: NCI-H929, A427, and K562 cell lines were obtained from ATCC.
Suspension cells were plated immediately before compound addition. Adherent cell lines were incubated overnight at 37 °C in a tissue culture incubator prior to compound addition. Compounds were added in triplicates using an HP D300e Digital Dispenser (Hewlett-Packard) or manually at the concentrations indicated and total volumes were normalized using DMSO backfill, with final DMSO concentration of 0.5%. Control wells were treated with DMSO only. Following incubation for 72 or 96 h, a Cell Titer-Glo assay was conducted following the manufacturer recommendations (Promega, G9243) and luminescence was measured using a Victor X5 (PerkinElmer) or a Cytation 3 (Biotek) plate reader. % Viability was defined as relative luminescence units (RLU) of each well divided by the RLU of cells on day 0.

A427 cells = test: In vitro proliferation assay (CellTiter-Glo), A427; type: cell-based; conditions: Homo sapiens, A-427
Method: as §1, §2

[2] = tested on: caspase 3/7 in A427 cells; test: Caspase 3/7 induction assay (Caspase-Glo), A427; type: cell-based; conditions: compound treatment for 3 h; for EC50: Homo sapiens, A-427
Method: (§3) Cells were treated with a 10-point compound titration and incubated at 37 °C for 3 h.

[3] = tested on: caspase 3/7 in H929 cells; test: Caspase 3/7 induction assay (Caspase-Glo), H929; type: cell-based; conditions: compound treatment for 3 h; for EC50: Homo sapiens, NCI-H929
Method: as §3

[4] = tested on: caspase 3/7 in K562 cells; test: Caspase 3/7 induction assay (Caspase-Glo), K562; type: cell-based; conditions: compound treatment for 3 h; for EC50: Homo sapiens, K562
Method: as §3

[5] = H929 cell line, average of at least n = 2, triplicate
[6] = in the presence of 1% fetal bovine serum, average of at least n = 2, read-out: TRFRET, Mcl-1 Ki
[7] = dosed at 20 mg/kg, read-out: i.v. mouse CL
[8] = supplementary CSV, unit not given (Table 1: 20 mg/kg, 14 and 16 at 10 mg/kg), read-out: CL
[9] = A427 cell line, average of at least n = 2, triplicate
[10] = supplementary CSV, unit inferred, read-out: Ki TRFRET
[11] = supplementary CSV, unit inferred

Row | Structure (SMILES) | GI50 (NCI-H929 cells; [5]) | Ki (Mcl-1; [6]) | clearance [1, 7] | clearance [1, 8] | GI50 (K562 cells) | GI50 (A427 cells; [9]) | EC50 [2] | A427 Caspase 3/7 fold over vehicle (FoV) [2] | EC50 [3] | H929 Caspase 3/7 maximum activity, fold over vehicle (FoV) [3] | EC50 [4] | K562 Caspase 3/7 fold over vehicle (FoV) [4] | Ki (Mcl-1; [10]) | GI50 (NCI-H929 cells; [11]) | GI50 (A427 cells; [11])
1 | COc1c(OCC2CCOCC2)cc(N2C[C@@H](C)n3c(c(CCCOc4cc(C)c(Cl)c(C)c4)c4ccc(Cl)c(-c5c(C)nc(C)nc5C)c43)C2=O)c2c1cc(C(=O)N(C)C)n2C [Compound 24, (R)-7-(7-chloro-10-(3-(4-chloro-3,5-dimethylphenoxy)propyl)-4-methyl-1-oxo-6-(2,4,6-trimethylpyrimidin-5-yl)-3,4-dihydropyrazino[1,2-a]indol-2(1H)-yl)-4-methoxy-N,N,1-trimethyl-5-((tetrahydro-2H-pyran-4-yl)methoxy)-1H-indole-2-carboxamide] | 1100 ± 380 nM | 105 ± 8 nM | 2 mL/min/kg | 2 mL/min/kg | > 12500 nM | 3600 ± 140 nM | – | – | – | – | – | – | – | – | –
2 | COc1c(OCC2CCOCC2)cc2c3c1cc(C(=O)O)n3CCCOCc1nn(C)cc1-c1c(Cl)ccc3c(CCCOc4cc(C)c(Cl)c(C)c4)c4n(c13)[C@H](C)CN2C4=O [Compound 20, (2^63^4 S a ,1^72^2 R a ,2^4 R)-2^7-Chloro-2^10-(3-(4-chloro-3,5-dimethylphenoxy)propyl)-1^4-methoxy-2^4,3^1-dimethyl-2^1-oxo-1^5-((tetrahydro-2H-pyran-4-yl)methoxy)-2^1,2^2,2^3,2^4-tetrahydro-1^1 H,3^1 H-5-oxa-2(2,6)-pyrazino[1,2-a]indola-1(7,1)-indola-3(4,3)-pyrazolacyclooctaphane-1^2-carboxylic Acid] | 31 ± 13 nM | 0.08 ± 0.02 nM | 8.9 mL/min/kg | 8.9 mL/min/kg | > 12500 nM | 55 ± 26 nM | 31 nM | 14 fold | 23 nM | 16 fold | > 3120 nM | 1.3 fold | – | – | –
3 | COc1c(C)cc2c3c1cc(C(=O)O)n3CCCOCc1nn(C)cc1-c1c(Cl)ccc3c(CCCOc4cc(C)c(Cl)c(C)c4)c4n(c13)[C@H](C)CN2C4=O [Compound 18, (2^63^4 S a ,1^72^2 R a ,2^4 R)-2^7-Chloro-2^10-(3-(4-chloro-3,5-dimethylphenoxy)propyl)-1^4-methoxy-1^5,2^4,3^1-trimethyl-2^1-oxo-2^1,2^2,2^3,2^4-tetrahydro-1^1 H,3^1 H-5-oxa-2(2,6)-pyrazino [1,2-a]indola-1(7,1)-indola-3(4,3)-pyrazolacyclooctaphane-1^2-carboxylic Acid] | 35 ± 16 nM | < 0.08 nM | 14.8 mL/min/kg | 14.8 mL/min/kg | > 12500 nM | 51 ± 20 nM | 28 nM | 16 fold | 36 nM | 17 fold | > 3120 nM | 1.4 fold | 0.04 nM | – | –
4 | COc1cc2c3c(cc(C(=O)O)n3CCCOCc3c(c(C)nn3C)-c3c(Cl)ccc4c(CCCOc5cc(C)c(Cl)c(C)c5)c5n(c34)[C@H](C)CN2C5=O)c1OC [Compound 11, (2^63^4 S a ,1^72^2 R a ,2^4 R)-2^7-Chloro-2^10-(3-(4-chloro-3,5-dimethylphenoxy)propyl)-1^4,1^5-dimethoxy-2^4,3^1,3^3-trimethyl-2^1-oxo-2^1,2^2,2^3,2^4-tetrahydro-1^1 H,3^1 H-5-oxa-2(2,6)-pyrazino[1,2-a]indola-1(7,1)-indola-3(4,5)-pyrazolacyclooctaphane-1^2-carboxylic Acid] | – | 0.08 ± 0.01 nM | – | – | > 12500 nM | – | – | – | – | – | – | – | 0.04 nM | 24 nM | 64 nM
5 | COc1cc2c3c(c1)cc(C(=O)O)n3CCCOCc1nn(C)cc1-c1c(Cl)ccc3c(CCCOc4cc(C)c(Cl)c(C)c4)c4n(c13)[C@H](C)CN2C4=O [Compound 15, (2^63^4 S a ,1^72^2 R a ,2^4 R)-2^7-Chloro-2^10-(3-(4-chloro-3,5-dimethylphenoxy)propyl)-1^5-methoxy-2^4,3^1-dimethyl-2^1-oxo-2^1,2^2,2^3,2^4-tetrahydro-1^1 H,3^1 H-5-oxa-2(2,6)-pyrazino[1,2-a]indola-1(7,1)-indola-3(4,3)-pyrazolacyclooctaphane-1^2-carboxylic Acid] | 38 ± 11 nM | < 0.08 nM | – | – | > 12500 nM | 60 ± 24 nM | 34 nM | 15 fold | 43 nM | 17 fold | > 3120 nM | 1.3 fold | 0.04 nM | – | –
6 | COc1cc(N2C[C@@H](C)n3c(c(CCCOc4cc(C)c(Cl)c(C)c4)c4ccc(Cl)c(-c5c(C)nn(C)c5C)c43)C2=O)c2c(cc(C(=O)O)n2C)c1OC [Compound 9] | – | – | 70 mL/min/kg | 70 mL/min/kg | – | – | – | – | – | – | – | – | – | – | –
7 | COc1cc2c3c(cc(C(=O)O)n3CCCOCc3nn(C)cc3-c3cccc4c(CCCOc5cc(C)c(Cl)c(C)c5)c5n(c34)[C@H](C)CN2C5=O)c1OC [Compound 23, (2^63^4 R a ,1^72^2 R a ,2^4 R)-2^10-(3-(4-Chloro-3,5-dimethylphenoxy)propyl)-1^4,1^5-dimethoxy-2^4,3^1-dimethyl-2^1-oxo-2^1,2^2,2^3,2^4-tetrahydro-1^1 H,3^1 H-5-oxa-2(2,6)-pyrazino[1,2-a]indola-1(7,1)-indola-3(4,3)-pyrazolacyclooctaphane-1^2-carboxylic Acid] | 15 ± 4 nM | < 0.08 nM | – | – | > 12500 nM | 32 ± 4 nM | – | – | – | – | – | – | < 0.02 nM | – | –
8 | COc1cc2c3c(cc(C(=O)O)n3CCCCOCc3nn(C)c(C)c3-c3c(Cl)ccc4c(CCCOc5cc(C)c(Cl)c(C)c5)c5n(c34)[C@H](C)CN2C5=O)c1OC [Compound 12, (2^63^4 S a ,1^72^2 R a ,24R)-2^7-Chloro-2^10-(3-(4-chloro-3,5-dimethylphenoxy)propyl)-1^4,1^5-dimethoxy-2^4,3^1,3^5-trimethyl-2^1-oxo-2^1,2^2,2^3,2^4-tetrahydro-1^1 H,3^1 H-5-oxa-2(2,6)-pyrazino[1,2-a]indola-1(7,1)-indola-3(4,3)-pyrazolacyclononaphane-1^2-carboxylic Acid] | – | – | – | – | > 7800 nM | – | – | – | – | – | – | – | 0.12 nM | 39 nM | 87 nM
